# pEC50: −log10 of the molar value.
# Tests used:
# [1] = tested on: ARPE19/HPV16 (HPV Immortalized RPE); assay: Cell line screen (potency assay); type: cell-based; settings: ARPE-19, AICDA expression Negative
# Method: (§1) The first step was to set up a cell killing assay in the Daudi cell line (AID positive). A 96 well u-bottom plate was prepared by writing the experiment number, plate number, date and initials in the top right corner of the plate lid. With a sterile 300 ml reservoir, and 25 ml serological pipette, evaporation buffer media was pipetted into reservoir in 25 ml increments. Using the liquid handler, 150 ul of evaporation buffer media was pipetted from reservoir into rows A and H, and Columns 1 and 12 of the 96 well u-bottom plate. Cell cultures were counted to obtain the density of cells per ml, and the culture viability. The cell density information was used to obtain 1,000,000 cells from culture using a 5 mL serological pipette into an epi tube. The cell density information from the culture was used to calculate the number of cells and volume of media needed for the assay to seed 1250 cells in 130 ul of media per available culture well in the 96 well u-bottom plate. Rows B through F were used for cells (50 wells in total), with row G left for an empty media control. The calculation was overestimated by 10 mL to account for the dead volume in the 300 ml reservoir. Once the media volume was calculated, the appropriate volume of media was pipetted in 25 mL increments into the 250 mL bottle using a 25 mL serological pipette. The 250 ml bottle was capped tightly, and placed into a 37° C. water bath for 2 minutes. While the culture media was warming, 10 mL of fresh media was pipetted from the 500 mL culture media bottle into a sterile 25 mL reservoir. Using the Eppendorf multichannel pipette, 130 ul of media was piptted from the 25 mL reservoir into row G of the 96 well u-bottom plate. Once the 250 mL bottle of media was warmed, the volume of culture needed was pipetted into the bottle, and mixed gently with a 25 mL serological pipette as to not create bubbles, and then the contents of the bottle were pipetted into a new 300 mL reservoir. Using the liquid handler, 130 ul of culture was pipetted from the 300 mL reservoir into rows B through F of the 96 well u-bottom plate. Once the culture was added, the plate was placed into a 37° C. incubator until the compound master plate was prepared for use.
# (§2) Two 96 well u-bottom plates were prepared by writing the master plate name in the upper right corner of the plate lid. Labeling one DMSO master and the other Media Master. The compounds of interest were obtained from the laboratory freezer, and placed into a 25 well storage box with a lid, and set the box aside. The compounds were vortexed after thawing but before use. Using an automatic multichannel pipette, 20 ul of 100% DMSO was pipetted into wells B3-B11 through G3-G11 of the DMSO master plate. For each compound on the master plate, 50 ul of the compound were pipetted in the appropriate well of row 2 (reference plate map to determine appropriate well). A serial dilution was prepared beginning by aspirating 20 ul from row 2 and mixing with row 3, repeating until row 11 was reached. Using the liquid handler, 194 ul of Daudi media was dispensed into wells B2-B11 through G2-G11 of the Media master plate. Using the liquid handler, 6 ul from the DMSO master plate was aspirated and dispensed into the media master plate, mixing 100 ul twice.
# Compounds from master plate were then added to the culture plate. The culture plates were removed from the incubator, and set inside the biosafety cabinet. Using a liquid handler, 20 ul from wells B2 to B11 through G2 to G11 of master plate were aspirated, and dispensed into wells B2 to B11 through G2 to G11 of culture plate. This set was continued with each culture plate. Once the culture plates acquired their 20 ul of compound dilutions, they were placed back into the incubator, until their reads on Day 7 of experiment. Cell death was measured on Day 7 of the experiment using Cell-Titer Glo and a Promega Plate reader. […]
# [2] = tested on: Daudi cell line (AID positive); assay: Primary screening cell killing assay (Cell-Titer Glo, Day 7); type: cell-based; settings: Homo sapiens, 168 h; Daudi cells (AID positive), cell death on Day 7; read-out: AID+ EC50
# Method: Primary screening was a phenotypic screen that utilized the synthetic lethal interaction between AID and RAD51 to identify compounds that were both potent and on target. AID expressing cells are dependent upon RAD51 for survival; inhibiting RAD51 in AID positive cells results in a cytotoxic effect.
# as §1, §2
# Compounds from master plate were then added to the culture plate. The culture plates were removed from the incubator, and set inside the biosafety cabinet. Using a liquid handler, 20 ul from wells B2 to B11 through G2 to G11 of master plate were aspirated, and dispensed into wells B2 to B11 through G2 to G11 of culture plate. This set was continued with each culture plate. […]
# HBCx12B model = assay: Tumor growth inhibition, subcutaneous engrafted tumor model; type: in vivo, mice; settings: HRD Positive, RAD51 High, BRCA1 Meth, PALB2 WT, 67A 80 mg/kg QD, olaparib 100 mg/kg QD, combo both
# Method: (§3) Immunodeficient mice were subcutaneously engrafted in the rear flank with the tumor cells. The tumors were allowed to grow to a size of about 100 to about 200 mm^3 prior to being randomized and grouped into treatment arms. For models […] through […] the four treatment arms were vehicle, Compound 67A at 80 mg/kg QD, olaparib at 100 mg/kg QD, and Compound 67A+Olaparib at 80 mg/kg QD and 100 mg/kg QD, respectively. For models J000101173 through TM00091 the treatment arms were vehicle, Compound 67A at 40 mg/kg QD, olaparib at 50 mg/kg QD, and Compound 67A+Olaparib at 40 mg/kg QD and 50 mg/kg QD, respectively. The tumors were measured either once weekly or twice weekly.
# (§4) Percent Tumor Growth Inhibition (% TGI) was calculated by taking the mean volume of each of the treatment arms, and comparing the treatment arms to the vehicle arms using the following equation
# TM00090 model = assay: as above; type: in vivo, mice; settings: HRD Positive, RAD51 Low, BRCA1 Meth, BRCA2 Mut, PALB2 WT, 67A 40 mg/kg QD, olaparib 50 mg/kg QD, combo both
# Method: as §3, §4
# TM00096 model = assay: as above; type: in vivo, mice; settings: HRD Positive, RAD51 Low, BRCA WT, PALB2 WT, 67A 40 mg/kg QD, olaparib 50 mg/kg QD, combo both
# Method: as §3, §4
# HBCx11 model = assay: as above; type: in vivo, mice; settings: HRD Positive, RAD51 High, BRCA1 Mut, PALB2 WT, 67A 80 mg/kg QD, olaparib 100 mg/kg QD, combo both
# Method: as §3, §4
# HBCx27 model = assay: as above; type: in vivo, mice; settings: HRD Negative, RAD51 High, BRCA WT, PALB2 WT, 67A 80 mg/kg QD, olaparib 100 mg/kg QD, combo both
# Method: as §3, §4
# [3] = Human liver microsome stability; type: in vitro ADME; settings: percentage of hepatic blood flow
# Method: The stability of the claimed compounds was determined in the presences of human liver microsomes. The compounds were incubated with the microsomes at 37° C. for 45 minutes. Samples were analyzed using LC-MS/MS. Data analysis included half-life, clearance rate, and the percentage of hepatic blood flow (% QH) for each of the compounds in the different species.
smiles,measurement,setting,value
"CC(C)OC(=O)Nc1ccc(-c2cnc([C@H]3CC[C@H](NC(=O)OC(C)C)CC3)s2)c(S(=O)(=O)NC(C)(C)C)c1 [Compound 67A, trans-isopropylN-[3-(tert-butylsulfamoyl)-4-[2-[4-(isopropoxycarbonylamino)cyclohexyl]thiazol-5-yl]phenyl]carbamate]",pEC50,[1],< 5.00
same,pEC50,[2],≥ 6.00
same,% TGI,HBCx12B model,−3.27%
same,% TGI,TM00090 model,51.82%
same,% TGI,TM00096 model,−25.4%
same,% TGI,HBCx11 model,23.39%
same,% TGI,HBCx27 model,13.14%
same,Human Liver Microsome Stability % QH,[3],<20.3%
